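Each compound was tested at five concentrations against cells in 96-well plates for 48 hours. The concentration for 50% growth inhibition is given as GI50.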 Active and inactive are the calls of the source. No stated cut-off is given here; in the data, active = GI50 up to about 1.1 µM and inactive = higher.
Columns and labels:
Assay in all cases: growth of human tumour cells (NCI), 48 h
HOP-62 = test system: HOP-62
BT-549 = test system: BT-549
K562 = test system: K562
UACC-62 = test system: UACC-62
HT-29 = test system: HT-29
ACHN = test system: ACHN
MOLT-4 = test system: MOLT-4
HOP-92 = test system: HOP-92
KM12 = test system: KM12
HCC 2998 = test system: HCC 2998
SR = test system: SR
HCT-15 = test system: HCT-15
T47D = test system: T47D
NCI-H460 = test system: NCI-H460
SF-539 = test system: SF-539
SK-MEL-2 = test system: SK-MEL-2
OVCAR-5 = test system: OVCAR-5
SNB-19 = test system: SNB-19
OVCAR-8 = test system: OVCAR-8
SN12C = test system: SN12C
DU-145 = test system: DU-145
RPMI-8226 = test system: RPMI-8226
A498 = test system: A498
HCT-116 = test system: HCT-116
OVCAR-4 = test system: OVCAR-4
A549 = test system: A549
LOX IMVI = test system: LOX IMVI
SF-268 = test system: SF-268
TK-10 = test system: TK-10
MDA-MB-435 = test system: MDA-MB-435
MCF7 = test system: MCF7
PC-3 = test system: PC-3
Hs-578T = test system: Hs-578T
SK-MEL-5 = test system: SK-MEL-5
EKVX = test system: EKVX
NCI-H522 = test system: NCI-H522
NCI/ADR-RES = test system: NCI/ADR-RES
CCRF-CEM = test system: CCRF-CEM
CAKI-1 = test system: CAKI-1
M14 = test system: M14
IGROV-1 = test system: IGROV-1
MDA-N = test system: MDA-N
Malme-3M = test system: Malme-3M
RXF 393 = test system: RXF 393
HL-60 = test system: HL-60
U-251 = test system: U-251
NCI-H226 = test system: NCI-H226
UACC-257 = test system: UACC-257
MDA-MB-231 = test system: MDA-MB-231
SW-620 = test system: SW-620
COLO 205 = test system: COLO 205
UO-31 = test system: UO-31
SK-MEL-28 = test system: SK-MEL-28
OVCAR-3 = test system: OVCAR-3
786-0 = test system: 786-0
NCI-H23 = test system: NCI-H23
SF-295 = test system: SF-295

Measured: GI50

N#Cc1c(Cl)cccc1Oc1ccc(S(=O)(=O)N/C(=N\O)Nc2ccc(Cl)cc2)cc1
17.3 µM: HCT-15
inactive: HOP-62 17.5 µM | BT-549 16.4 µM | K562 24.2 µM | UACC-62 15.5 µM | HT-29 17.3 µM | ACHN 15.6 µM | MOLT-4 18.4 µM | HOP-92 11 µM | KM12 17.2 µM | HCC 2998 14.7 µM | SR 23.9 µM | T47D 13.2 µM | NCI-H460 17.9 µM | SF-539 17.7 µM | SK-MEL-2 17.6 µM | OVCAR-5 19.3 µM | SNB-19 16.3 µM | OVCAR-8 18 µM | SN12C 14.8 µM | DU-145 18.8 µM | RPMI-8226 30.4 µM | A498 15.3 µM | HCT-116 14.2 µM | OVCAR-4 14.8 µM | A549 16.8 µM | LOX IMVI 16 µM | SF-268 19.9 µM | TK-10 16.6 µM | MDA-MB-435 17.9 µM | MCF7 17.1 µM | PC-3 16.4 µM | Hs-578T 27.4 µM | SK-MEL-5 17.2 µM | EKVX 15.5 µM | NCI-H522 18 µM | NCI/ADR-RES 20.7 µM | CCRF-CEM 18.9 µM | CAKI-1 15.5 µM | M14 15.7 µM | IGROV-1 16.3 µM | MDA-N 16.4 µM | Malme-3M 19.2 µM | RXF 393 17.9 µM | HL-60 12.1 µM | U-251 17 µM | NCI-H226 24.8 µM | UACC-257 16.9 µM | MDA-MB-231 16.3 µM | SW-620 17.6 µM | COLO 205 18.2 µM | UO-31 14.2 µM | SK-MEL-28 19.9 µM | OVCAR-3 15.8 µM | 786-0 13.6 µM | NCI-H23 17.6 µM | SF-295 17.2 µM
